ChEMBL document CHEMBL5126566, “Comparison of three zinc binding groups for HDAC inhibitors - A potency, selectivity and enzymatic kinetics study” (Bioorg Med Chem Lett, 2022)
Activity calls are given as the source filed them. No cut-off for these calls is given here.

Columns and labels:
Histone deacetylase 9 = Histone deacetylase 9 (Homo sapiens, UniProt Q9UKV0); test: Inhibition of HDAC9 (unknown origin)
Histone deacetylase 1 [1] = molecular target: T1, Histone deacetylase 1 (Homo sapiens, UniProt Q13547); test: Inhibition of HDAC1 (unknown origin)
Histone deacetylase 5 = Histone deacetylase 5 (Homo sapiens, UniProt Q9UQL6); test: Inhibition of HDAC5 (unknown origin)
Histone deacetylase 2 [2] = molecular target: T2, Histone deacetylase 2 (Homo sapiens, UniProt Q92769); test: Competitive inhibition of HDAC2 (unknown origin) at 444 to 1500 nM by Lineweaver-Burk plot analysis; conditions: dose 444-1500 nM
Histone deacetylase 3 [3] = molecular target: T3, Histone deacetylase 3 (Homo sapiens, UniProt O15379); test: Inhibition of HDAC3 (unknown origin) preincubated for 90 mins
Histone deacetylase 8 = molecular target: T4, Histone deacetylase 8 (Homo sapiens, UniProt Q9BY41); test: Inhibition of HDAC8 (unknown origin)
T4 sequence (Q9BY41 whole entry): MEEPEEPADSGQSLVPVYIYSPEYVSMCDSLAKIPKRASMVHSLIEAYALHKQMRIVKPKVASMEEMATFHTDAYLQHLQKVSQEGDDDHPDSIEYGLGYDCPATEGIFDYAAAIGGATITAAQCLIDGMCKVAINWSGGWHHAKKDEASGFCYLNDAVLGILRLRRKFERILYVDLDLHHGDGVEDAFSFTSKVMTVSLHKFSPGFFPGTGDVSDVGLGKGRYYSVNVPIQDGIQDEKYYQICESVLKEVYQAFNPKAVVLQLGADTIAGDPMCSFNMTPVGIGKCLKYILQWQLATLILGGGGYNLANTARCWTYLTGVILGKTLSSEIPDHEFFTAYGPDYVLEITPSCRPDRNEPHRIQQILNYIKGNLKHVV

Histone deacetylase 2 [4] = molecular target: T2, Histone deacetylase 2; test: Inhibition of HDAC2 (unknown origin)
Histone deacetylase 2 [5] = molecular target: T2, Histone deacetylase 2; test: Inhibition of HDAC2 (unknown origin) preincubated for 90 mins
Histone deacetylase 3 [6] = molecular target: T3, Histone deacetylase 3; test: Competitive inhibition of HDAC3 (unknown origin) at 444 to 1500 nM by Lineweaver-Burk plot analysis; conditions: dose 444-1500 nM
Histone deacetylase 1 [7] = molecular target: T1, Histone deacetylase 1; test: Inhibition of HDAC1 (unknown origin) preincubated for 90 mins
Histone deacetylase 2 [8] = molecular target: T2, Histone deacetylase 2; test: Inhibition of HDAC2 (unknown origin) preincubated for 120 mins
Histone deacetylase 1 [9] = molecular target: T1, Histone deacetylase 1; test: Competitive inhibition of HDAC1 (unknown origin) at 444 to 1500 nM by Lineweaver-Burk plot analysis; conditions: dose 444-1500 nM
Histone deacetylase 1 [10] = molecular target: T1, Histone deacetylase 1; test: Inhibition of HDAC1 (unknown origin) preincubated for 30 mins
Histone deacetylase 3 [11] = molecular target: T3, Histone deacetylase 3; test: Inhibition of HDAC3 (unknown origin)
Histone deacetylase 3 [12] = molecular target: T3, Histone deacetylase 3; test: Inhibition of HDAC3 (unknown origin) preincubated for 60 mins
Histone deacetylase 7 = molecular target: T5, Histone deacetylase 7 (Homo sapiens, UniProt Q8WUI4); test: Inhibition of HDAC7 (unknown origin)
T5 sequence (Q8WUI4 whole entry): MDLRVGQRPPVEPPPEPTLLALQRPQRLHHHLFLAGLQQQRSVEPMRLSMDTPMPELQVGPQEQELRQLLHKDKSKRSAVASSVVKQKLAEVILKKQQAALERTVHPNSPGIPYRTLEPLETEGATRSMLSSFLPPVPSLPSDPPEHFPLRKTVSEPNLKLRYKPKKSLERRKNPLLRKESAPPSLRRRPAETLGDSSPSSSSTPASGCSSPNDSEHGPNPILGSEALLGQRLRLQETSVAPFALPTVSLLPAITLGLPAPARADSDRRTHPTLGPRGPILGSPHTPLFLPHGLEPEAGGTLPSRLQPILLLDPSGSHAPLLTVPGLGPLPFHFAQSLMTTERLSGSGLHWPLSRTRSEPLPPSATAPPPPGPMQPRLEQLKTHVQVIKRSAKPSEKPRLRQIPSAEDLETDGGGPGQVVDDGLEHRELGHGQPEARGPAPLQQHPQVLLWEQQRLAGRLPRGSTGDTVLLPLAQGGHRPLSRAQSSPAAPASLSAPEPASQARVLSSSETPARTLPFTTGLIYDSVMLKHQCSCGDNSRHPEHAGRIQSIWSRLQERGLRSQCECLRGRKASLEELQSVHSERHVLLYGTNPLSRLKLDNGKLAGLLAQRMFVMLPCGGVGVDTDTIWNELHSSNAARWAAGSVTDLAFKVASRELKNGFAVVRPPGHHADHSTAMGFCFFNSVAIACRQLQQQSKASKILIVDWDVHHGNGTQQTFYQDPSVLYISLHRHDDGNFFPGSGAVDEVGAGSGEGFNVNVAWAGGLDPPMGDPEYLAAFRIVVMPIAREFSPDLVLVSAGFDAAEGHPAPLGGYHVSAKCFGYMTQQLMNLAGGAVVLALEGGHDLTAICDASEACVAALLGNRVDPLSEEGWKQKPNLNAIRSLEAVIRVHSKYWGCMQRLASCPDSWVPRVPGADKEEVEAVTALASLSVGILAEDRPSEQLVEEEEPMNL

Histone deacetylase 1 [13] = molecular target: T1, Histone deacetylase 1; test: Inhibition of HDAC1 (unknown origin) preincubated for 5 mins
Histone deacetylase 3 [14] = molecular target: T3, Histone deacetylase 3; test: Inhibition of HDAC3 (unknown origin) preincubated for 5 mins
Histone deacetylase 4 = Histone deacetylase 4 (Homo sapiens, UniProt P56524); test: Inhibition of HDAC4 (unknown origin)
[15] = molecular target: T6, Protein deacetylase HDAC6 (Homo sapiens, UniProt Q9UBN7); test: Inhibition of HDAC6 (unknown origin)
T6 sequence (Q9UBN7 whole entry): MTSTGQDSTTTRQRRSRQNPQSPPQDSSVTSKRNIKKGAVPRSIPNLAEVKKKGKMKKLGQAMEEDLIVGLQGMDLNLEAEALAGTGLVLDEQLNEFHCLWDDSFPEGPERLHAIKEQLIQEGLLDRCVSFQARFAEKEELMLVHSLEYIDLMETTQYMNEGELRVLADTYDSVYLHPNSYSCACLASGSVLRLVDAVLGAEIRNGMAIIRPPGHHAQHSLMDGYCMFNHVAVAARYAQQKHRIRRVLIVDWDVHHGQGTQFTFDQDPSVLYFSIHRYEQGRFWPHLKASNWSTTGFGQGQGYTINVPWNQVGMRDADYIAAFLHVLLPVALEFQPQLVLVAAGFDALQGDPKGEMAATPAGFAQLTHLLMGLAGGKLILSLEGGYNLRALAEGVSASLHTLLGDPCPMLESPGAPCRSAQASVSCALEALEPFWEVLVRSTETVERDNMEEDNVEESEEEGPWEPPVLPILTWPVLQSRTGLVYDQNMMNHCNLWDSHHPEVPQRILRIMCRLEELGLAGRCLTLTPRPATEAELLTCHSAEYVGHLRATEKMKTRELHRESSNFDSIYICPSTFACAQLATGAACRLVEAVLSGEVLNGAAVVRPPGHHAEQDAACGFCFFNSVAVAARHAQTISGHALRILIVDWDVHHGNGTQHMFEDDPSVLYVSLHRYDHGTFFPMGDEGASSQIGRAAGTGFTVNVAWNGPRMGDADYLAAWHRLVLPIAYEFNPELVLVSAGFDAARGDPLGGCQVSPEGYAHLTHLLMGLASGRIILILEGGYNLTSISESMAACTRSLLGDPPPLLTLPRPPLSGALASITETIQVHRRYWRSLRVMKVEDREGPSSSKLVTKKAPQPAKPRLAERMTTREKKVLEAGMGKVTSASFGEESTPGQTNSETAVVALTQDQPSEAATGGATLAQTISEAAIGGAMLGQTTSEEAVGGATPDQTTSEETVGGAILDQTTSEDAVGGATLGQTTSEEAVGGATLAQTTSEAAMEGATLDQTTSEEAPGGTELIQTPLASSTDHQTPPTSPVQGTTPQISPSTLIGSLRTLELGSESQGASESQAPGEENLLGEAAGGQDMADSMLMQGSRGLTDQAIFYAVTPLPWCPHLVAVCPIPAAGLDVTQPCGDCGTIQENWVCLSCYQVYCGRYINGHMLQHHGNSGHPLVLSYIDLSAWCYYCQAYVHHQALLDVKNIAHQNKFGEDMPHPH

Histone deacetylase 11 = molecular target: T7, Histone deacetylase 11 (Homo sapiens, UniProt Q96DB2); test: Inhibition of HDAC11 (unknown origin)
T7 sequence (Q96DB2 whole entry): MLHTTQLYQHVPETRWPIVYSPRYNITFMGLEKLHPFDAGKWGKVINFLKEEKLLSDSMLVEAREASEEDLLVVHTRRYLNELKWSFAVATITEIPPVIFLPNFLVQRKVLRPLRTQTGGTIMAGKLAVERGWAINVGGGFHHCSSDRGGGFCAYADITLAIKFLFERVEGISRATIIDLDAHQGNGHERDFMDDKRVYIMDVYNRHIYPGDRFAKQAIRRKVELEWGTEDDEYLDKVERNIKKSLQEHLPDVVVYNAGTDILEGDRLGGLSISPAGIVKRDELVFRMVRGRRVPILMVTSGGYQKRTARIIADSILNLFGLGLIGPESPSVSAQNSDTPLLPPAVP

Histone deacetylase 2 [16] = molecular target: T2, Histone deacetylase 2; test: Inhibition of HDAC2 (unknown origin) preincubated for 60 mins
Histone deacetylase 3 [17] = molecular target: T3, Histone deacetylase 3; test: Inhibition of HDAC3 (unknown origin) preincubated for 30 mins
Histone deacetylase 1 [18] = molecular target: T1, Histone deacetylase 1; test: Inhibition of HDAC1 (unknown origin) preincubated for 60 mins
MV4-11 = test: Antiproliferative activity against human MV4-11 cells; format: functional, cell-based
Histone deacetylase 3 [19] = molecular target: T3, Histone deacetylase 3; test: Inhibition of HDAC3 (unknown origin) preincubated for 120 mins
Histone deacetylase 2 [20] = molecular target: T2, Histone deacetylase 2; test: Inhibition of HDAC2 (unknown origin) preincubated for 30 mins
[21] = molecular target: T8, Polyamine deacetylase HDAC10 (Homo sapiens, UniProt Q969S8); test: Inhibition of HDAC10 (unknown origin)
T8 sequence (Q969S8 whole entry): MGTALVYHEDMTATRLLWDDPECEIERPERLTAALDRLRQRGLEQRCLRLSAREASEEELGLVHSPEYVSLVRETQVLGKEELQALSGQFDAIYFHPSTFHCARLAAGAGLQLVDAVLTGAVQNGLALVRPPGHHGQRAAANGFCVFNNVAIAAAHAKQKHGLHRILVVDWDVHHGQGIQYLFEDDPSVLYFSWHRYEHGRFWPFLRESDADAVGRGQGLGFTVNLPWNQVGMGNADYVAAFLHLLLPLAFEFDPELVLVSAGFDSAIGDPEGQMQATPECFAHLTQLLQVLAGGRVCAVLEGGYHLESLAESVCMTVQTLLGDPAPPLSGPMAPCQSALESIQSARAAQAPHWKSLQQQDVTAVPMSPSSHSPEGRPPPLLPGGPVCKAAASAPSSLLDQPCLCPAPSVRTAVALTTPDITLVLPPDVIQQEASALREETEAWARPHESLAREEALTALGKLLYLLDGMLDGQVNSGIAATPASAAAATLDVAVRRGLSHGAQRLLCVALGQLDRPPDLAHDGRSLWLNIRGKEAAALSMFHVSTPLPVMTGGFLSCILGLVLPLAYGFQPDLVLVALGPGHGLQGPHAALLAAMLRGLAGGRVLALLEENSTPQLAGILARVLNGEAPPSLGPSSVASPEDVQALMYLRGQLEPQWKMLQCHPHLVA

Histone deacetylase 1 [22] = molecular target: T1, Histone deacetylase 1; test: Inhibition of HDAC1 (unknown origin) preincubated for 120 mins
Histone deacetylase 2 [23] = molecular target: T2, Histone deacetylase 2; test: Inhibition of HDAC2 (unknown origin) preincubated for 5 mins

T1 sequence (Q13547 whole entry): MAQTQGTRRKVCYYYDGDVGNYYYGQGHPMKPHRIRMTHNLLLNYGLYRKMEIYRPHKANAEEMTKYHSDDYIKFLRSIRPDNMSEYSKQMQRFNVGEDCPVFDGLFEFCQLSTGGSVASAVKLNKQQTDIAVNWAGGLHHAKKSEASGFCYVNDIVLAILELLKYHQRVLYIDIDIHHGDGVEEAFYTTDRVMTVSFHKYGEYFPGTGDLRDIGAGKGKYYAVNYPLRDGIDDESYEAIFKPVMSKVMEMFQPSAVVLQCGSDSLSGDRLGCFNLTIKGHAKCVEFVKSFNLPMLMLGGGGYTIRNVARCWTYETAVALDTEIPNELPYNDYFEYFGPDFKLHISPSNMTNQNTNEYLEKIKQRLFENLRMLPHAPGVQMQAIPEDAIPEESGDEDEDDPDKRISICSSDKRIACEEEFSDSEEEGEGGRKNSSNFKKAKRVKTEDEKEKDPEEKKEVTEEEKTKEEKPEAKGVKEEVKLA
T2 sequence (Q92769 whole entry): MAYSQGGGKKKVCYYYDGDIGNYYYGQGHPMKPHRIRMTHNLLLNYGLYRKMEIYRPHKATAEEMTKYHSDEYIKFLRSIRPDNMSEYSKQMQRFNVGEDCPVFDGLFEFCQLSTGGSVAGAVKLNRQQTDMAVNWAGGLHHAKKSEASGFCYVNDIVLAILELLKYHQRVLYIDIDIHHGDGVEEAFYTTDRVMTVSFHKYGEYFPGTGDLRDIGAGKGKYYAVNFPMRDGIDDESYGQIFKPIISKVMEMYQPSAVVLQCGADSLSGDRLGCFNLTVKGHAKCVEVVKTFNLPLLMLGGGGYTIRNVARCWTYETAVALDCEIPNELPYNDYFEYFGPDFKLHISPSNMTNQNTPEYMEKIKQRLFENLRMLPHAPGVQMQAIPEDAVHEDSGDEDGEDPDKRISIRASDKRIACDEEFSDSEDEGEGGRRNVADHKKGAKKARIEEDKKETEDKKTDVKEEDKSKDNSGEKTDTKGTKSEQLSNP
T3 sequence (O15379 whole entry): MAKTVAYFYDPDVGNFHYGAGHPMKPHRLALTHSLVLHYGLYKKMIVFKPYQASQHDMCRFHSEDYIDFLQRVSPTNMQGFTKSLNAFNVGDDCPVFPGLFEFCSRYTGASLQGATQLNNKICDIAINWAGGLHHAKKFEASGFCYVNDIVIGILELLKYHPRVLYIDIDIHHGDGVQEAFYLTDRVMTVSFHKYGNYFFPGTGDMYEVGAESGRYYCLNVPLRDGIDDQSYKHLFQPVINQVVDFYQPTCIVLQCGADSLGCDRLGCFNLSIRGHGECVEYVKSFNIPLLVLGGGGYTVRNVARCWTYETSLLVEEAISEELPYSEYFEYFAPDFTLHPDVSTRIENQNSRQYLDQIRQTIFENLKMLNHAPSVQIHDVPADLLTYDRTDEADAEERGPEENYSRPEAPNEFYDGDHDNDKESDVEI
Chain of Histone deacetylase 4 (P56524 whole entry): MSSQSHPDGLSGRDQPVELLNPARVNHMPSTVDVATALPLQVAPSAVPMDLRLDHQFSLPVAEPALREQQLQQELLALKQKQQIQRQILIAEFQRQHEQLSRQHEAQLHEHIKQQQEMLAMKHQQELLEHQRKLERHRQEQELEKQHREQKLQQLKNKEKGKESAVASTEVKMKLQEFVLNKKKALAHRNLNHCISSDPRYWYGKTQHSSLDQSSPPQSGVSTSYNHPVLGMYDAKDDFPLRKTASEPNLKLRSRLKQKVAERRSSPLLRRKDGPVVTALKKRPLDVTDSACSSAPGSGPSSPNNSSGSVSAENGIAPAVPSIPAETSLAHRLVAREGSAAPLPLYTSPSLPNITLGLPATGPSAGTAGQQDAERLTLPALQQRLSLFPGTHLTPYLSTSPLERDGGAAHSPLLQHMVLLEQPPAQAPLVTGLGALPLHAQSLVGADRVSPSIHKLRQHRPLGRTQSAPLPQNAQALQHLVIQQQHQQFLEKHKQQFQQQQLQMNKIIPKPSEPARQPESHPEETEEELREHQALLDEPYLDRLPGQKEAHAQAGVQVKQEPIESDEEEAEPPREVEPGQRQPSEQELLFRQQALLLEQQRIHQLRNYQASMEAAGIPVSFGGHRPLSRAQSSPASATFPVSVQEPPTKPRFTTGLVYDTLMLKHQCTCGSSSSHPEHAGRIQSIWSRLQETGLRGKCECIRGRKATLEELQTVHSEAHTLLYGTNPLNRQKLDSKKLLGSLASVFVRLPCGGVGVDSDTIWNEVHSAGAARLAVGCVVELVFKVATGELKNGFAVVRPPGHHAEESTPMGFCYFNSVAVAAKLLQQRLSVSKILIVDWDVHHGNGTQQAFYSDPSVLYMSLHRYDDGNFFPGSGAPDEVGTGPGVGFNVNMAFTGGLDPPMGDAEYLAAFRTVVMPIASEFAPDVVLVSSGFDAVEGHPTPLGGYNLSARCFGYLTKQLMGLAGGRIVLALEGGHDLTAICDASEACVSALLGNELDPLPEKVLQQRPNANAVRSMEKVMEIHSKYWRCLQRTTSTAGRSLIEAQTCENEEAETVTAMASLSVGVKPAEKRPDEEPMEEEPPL
Chain of Histone deacetylase 5 (Q9UQL6 whole entry): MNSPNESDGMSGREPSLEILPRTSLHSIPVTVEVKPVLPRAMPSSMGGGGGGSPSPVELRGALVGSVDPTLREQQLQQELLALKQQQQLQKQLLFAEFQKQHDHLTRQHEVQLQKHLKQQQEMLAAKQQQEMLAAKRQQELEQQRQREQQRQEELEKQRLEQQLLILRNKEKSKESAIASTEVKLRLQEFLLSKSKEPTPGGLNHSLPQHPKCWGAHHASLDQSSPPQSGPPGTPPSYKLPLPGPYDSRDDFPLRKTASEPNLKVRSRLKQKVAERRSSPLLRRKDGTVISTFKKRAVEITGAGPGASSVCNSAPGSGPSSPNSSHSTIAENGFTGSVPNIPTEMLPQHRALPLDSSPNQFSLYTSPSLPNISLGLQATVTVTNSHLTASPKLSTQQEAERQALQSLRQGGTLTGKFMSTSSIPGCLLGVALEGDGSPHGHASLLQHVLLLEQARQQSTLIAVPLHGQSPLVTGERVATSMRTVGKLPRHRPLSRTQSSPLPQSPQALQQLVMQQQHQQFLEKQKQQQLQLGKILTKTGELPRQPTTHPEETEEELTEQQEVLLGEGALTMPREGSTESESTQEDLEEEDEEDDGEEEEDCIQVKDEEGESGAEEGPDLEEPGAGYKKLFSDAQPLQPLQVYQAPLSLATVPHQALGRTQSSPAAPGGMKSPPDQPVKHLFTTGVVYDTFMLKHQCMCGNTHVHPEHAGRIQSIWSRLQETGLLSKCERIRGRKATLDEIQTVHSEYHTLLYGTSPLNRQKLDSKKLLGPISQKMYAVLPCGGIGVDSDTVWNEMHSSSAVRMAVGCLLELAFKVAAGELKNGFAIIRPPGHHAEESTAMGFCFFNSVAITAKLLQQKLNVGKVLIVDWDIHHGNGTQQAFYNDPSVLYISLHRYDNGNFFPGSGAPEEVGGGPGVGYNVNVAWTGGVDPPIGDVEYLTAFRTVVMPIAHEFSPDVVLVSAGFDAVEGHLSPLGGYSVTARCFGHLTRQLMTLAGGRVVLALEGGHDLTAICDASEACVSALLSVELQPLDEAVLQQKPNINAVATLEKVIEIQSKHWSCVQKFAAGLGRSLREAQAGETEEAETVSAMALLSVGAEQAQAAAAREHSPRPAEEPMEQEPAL
Chain of Histone deacetylase 9 (Q9UKV0 whole entry): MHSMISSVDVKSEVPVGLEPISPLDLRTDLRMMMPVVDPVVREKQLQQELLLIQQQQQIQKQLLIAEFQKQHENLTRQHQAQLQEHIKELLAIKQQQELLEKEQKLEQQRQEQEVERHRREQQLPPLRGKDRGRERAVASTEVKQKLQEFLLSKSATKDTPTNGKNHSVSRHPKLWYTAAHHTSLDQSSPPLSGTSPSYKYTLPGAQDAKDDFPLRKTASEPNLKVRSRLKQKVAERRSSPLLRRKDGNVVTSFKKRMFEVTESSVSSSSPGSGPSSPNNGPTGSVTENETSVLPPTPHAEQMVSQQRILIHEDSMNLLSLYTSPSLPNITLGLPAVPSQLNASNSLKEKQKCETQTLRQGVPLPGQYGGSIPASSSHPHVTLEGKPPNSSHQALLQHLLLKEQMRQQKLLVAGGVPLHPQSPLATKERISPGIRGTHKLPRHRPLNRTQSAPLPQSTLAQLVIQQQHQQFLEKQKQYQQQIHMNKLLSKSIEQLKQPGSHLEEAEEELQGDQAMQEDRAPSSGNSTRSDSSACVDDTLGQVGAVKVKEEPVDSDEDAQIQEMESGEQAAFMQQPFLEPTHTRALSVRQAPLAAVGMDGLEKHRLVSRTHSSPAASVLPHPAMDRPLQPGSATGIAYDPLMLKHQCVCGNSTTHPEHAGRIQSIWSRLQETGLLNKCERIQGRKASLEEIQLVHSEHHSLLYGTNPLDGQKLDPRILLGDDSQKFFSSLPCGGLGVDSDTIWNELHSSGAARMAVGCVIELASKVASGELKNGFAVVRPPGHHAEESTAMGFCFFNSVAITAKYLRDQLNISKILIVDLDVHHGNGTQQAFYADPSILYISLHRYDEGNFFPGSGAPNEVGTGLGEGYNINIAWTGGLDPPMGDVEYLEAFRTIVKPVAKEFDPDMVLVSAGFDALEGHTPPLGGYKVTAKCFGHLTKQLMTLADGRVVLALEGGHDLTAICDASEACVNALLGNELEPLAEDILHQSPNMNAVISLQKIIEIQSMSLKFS

## Nc1ccccc1NC(=O)CCCCCCC(=O)Nc1ccccc1
Histone deacetylase 9
  IC50: > 10 µM
Histone deacetylase 1 [1]
  IC50: 0.828 µM
Histone deacetylase 5
  IC50: > 10 µM
Histone deacetylase 2 [2]
  inhibition: Active
Histone deacetylase 3 [3]
  IC50: 0.391 µM
Histone deacetylase 8
  IC50: > 10 µM
Histone deacetylase 2 [4]
  IC50: 0.53 µM
Histone deacetylase 2 [5]
  IC50: 1.36 µM
Histone deacetylase 3 [6]
  inhibition: Active
Histone deacetylase 1 [7]
  IC50: 1.22 µM
Histone deacetylase 2 [8]
  IC50: 1.27 µM
Histone deacetylase 1 [9]
  inhibition: Active
Histone deacetylase 1 [10]
  IC50: 0.91 µM
Histone deacetylase 3 [11]
  IC50: 0.379 µM
Histone deacetylase 3 [12]
  IC50: 0.535 µM
Histone deacetylase 7
  IC50: > 10 µM
Histone deacetylase 1 [13]
  IC50: 0.944 µM
Histone deacetylase 3 [14]
  IC50: 0.659 µM
Histone deacetylase 4
  IC50: > 10 µM
[15]
  IC50: > 10 µM
Histone deacetylase 11
  IC50: > 10 µM
Histone deacetylase 2 [16]
  IC50: 1.17 µM
Histone deacetylase 3 [17]
  IC50: 0.559 µM
Histone deacetylase 1 [18]
  IC50: 1.14 µM
MV4-11
  IC50: 7.24 µM
Histone deacetylase 3 [19]
  IC50: 0.463 µM
Histone deacetylase 2 [20]
  IC50: 1.17 µM
[21]
  IC50: > 10 µM
Histone deacetylase 1 [22]
  IC50: 1.07 µM
Histone deacetylase 2 [23]
  IC50: 1.16 µM
